Where two headings read alike, the source gives them in different places.
Experiments:
K562 (CML) cells = assay: Cell killing assay (cell proliferation, Cell Titer-Glo), K562 (CML); type: cell-based; conditions: 72 hrs, NK = no killing
Description: (§1) Cell lines tested included B-lymphoma, multiple myeloma, and leukemia cells.
(§2) Cytotoxicity effects of the free drug linkers and conjugates were measured with a cell proliferation assay. A total of 12500 cells in a volume of 25 μl were seeded in a 384-well flat bottom white polystyrene plate on the day of assay. Free drug-linkers and conjugates were formulated at 2× starting concentration (1000 nM for free drug linkers and 100 nM for ADCs) in RPMI medium and filtered through MultiScreen HTS 96-Well Filter Plates (Millipore). Filter sterilized samples were serial diluted (1:3) under sterile conditions and added into treatment wells. Plates were cultured at 37° C. in a CO2 incubator for 72 hrs. For cell viability measurement, 30 μl of Cell Titer-Glo® reagent (Promega Corp.) was added into each well, and plates processed as per product instructions. Relative luminescence was measured on an ENVISION® plate reader (Perkin-Elmer; Waltham, Mass.). Relative luminescence readings were converted to % viability using untreated cells as controls. Data was fitted with non-linear regression analysis, using log(inhibitor) vs. response, variable slope, 4 parameter fit equation using GraphPad Prism. Data was expressed as % relative cell viability vs. dose of free drug-linker or conjugate in nM.
(§3) Each of Conjugates A-F was evaluated for the ability to bind and kill cells expressing CD74. […]

SU-DHL-6 (NHL) cells = assay: cells; type: cell-based, human
Description: as §1, §2, §1

SUP-B15 (ALL) cells = assay: cells; type: cell-based
Description: as §1, §2, §1

RPMI-6666 (HL) cells = assay: cells; type: cell-based
Description: as §1, §2, §1

JVM-13 (CLL) cells = assay: cells; type: cell-based
Description: as §1, §2, §1

ARD (MM) cells = assay: cells; type: cell-based
Description: as §1, §2, §1

BDCM (AML) cells = assay: cells; type: cell-based
Description: as §1, §2, §1

ARP-1 (MM) cells = type: cell-based, human
Description: as §1, §2, §1

RPMI-8226 (MM) cells = assay: cells; type: cell-based
Description: as §1, §2
(§4) Each of Conjugates A-F was evaluated for the ability to bind and kill cells expressing CD74. Cell lines tested included B-lymphoma, multiple myeloma, and leukemia cells. Controls included unconjugated anti-CD74 antibody.

OPM-2 (MM) cells = assay: Cell killing assay (cell proliferation, Cell Titer-Glo), OPM-2 (MM); type: cell-based; conditions: 72 hrs, NK = no killing
Description: as §1, §2, §3

[1] = molecular target: T1, CD74 on RPMI-6666 (HL) cells (Homo sapiens, UniProt P04233); assay: Cell binding assay (FACS), RPMI-6666 (HL); conditions: NB = no binding
T1 construct: endogenous in cells; host or cells: RPMI-6666, SU-DHL-6, ARD, ARP-1, RPMI-8226, OPM-2, BDCM, SUP-B15, JVM-13, K562
T1 sequence (P04233 1-296): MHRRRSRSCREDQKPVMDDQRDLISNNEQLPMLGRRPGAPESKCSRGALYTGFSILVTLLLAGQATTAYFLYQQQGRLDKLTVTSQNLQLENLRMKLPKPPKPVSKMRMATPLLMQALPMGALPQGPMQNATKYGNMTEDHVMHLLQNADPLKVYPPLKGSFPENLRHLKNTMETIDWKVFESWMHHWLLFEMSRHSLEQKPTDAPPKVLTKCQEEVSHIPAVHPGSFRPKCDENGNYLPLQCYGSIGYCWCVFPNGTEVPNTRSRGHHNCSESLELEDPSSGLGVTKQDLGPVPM
Description: as §1
(§5) Cell lines were maintained in RPMI, high glucose (Cellgro-Mediatech; Manassas, Va.) supplemented with 20% heat-inactivated fetal bovine serum (Hyclone; Thermo Scientific; Waltham, Mass.), 2 mM glutamax (Invitrogen; Carlsbad, Calif.) and 1×Pencillin/streptomycin (Cellgro-Mediatech; Manassas, Va.). Cells were harvested and re-suspended in FACS buffer (DPBS buffer supplemented with 1% bovine serum albumin). […] Cells were washed twice with ice-cold FACS buffer and incubated with 5 ug/ml Alexa 647 labeled donkey anti-human IgG antibody (Jackson Immune-Research) on ice for another 60 mins. Unstained cells and cells stained with secondary antibody alone were used as controls. Samples were then washed twice using FACS buffer and analyzed using a BD FACS Canto system. Mean fluorescence intensities were fitted using non-linear regression analysis with one site specific binding equation on GraphPad Prism. Data was expressed as geometric mean fluorescent intensity vs. antibody concentration in nM.
as §4

[2] = molecular target: T2, CD74 on SUP-B15 (ALL) cells (Homo sapiens, UniProt P04233); assay: Cell binding assay (FACS), SUP-B15 (ALL); conditions: NB = no binding
T2 construct: endogenous in cells; host or cells: RPMI-6666, SU-DHL-6, ARD, ARP-1, RPMI-8226, OPM-2, BDCM, SUP-B15, JVM-13, K562
T2 sequence (P04233 1-296): T1 sequence (P04233 1-296)
Description: as §1, §5, §4

[3] = molecular target: T3, CD74 on JVM-13 (CLL) cells (Homo sapiens, UniProt P04233); assay: Cell binding assay (FACS), JVM-13 (CLL); conditions: NB = no binding
T3 construct: endogenous in cells; host or cells: RPMI-6666, SU-DHL-6, ARD, ARP-1, RPMI-8226, OPM-2, BDCM, SUP-B15, JVM-13, K562
T3 sequence (P04233 1-296): T1 sequence (P04233 1-296)
Description: as §1, §5, §4

[4] = molecular target: T4, CD74 on RPMI-8226 (MM) cells (Homo sapiens, UniProt P04233); assay: Cell binding assay (FACS), RPMI-8226 (MM); conditions: NB = no binding
T4 construct: endogenous in cells; host or cells: RPMI-8226
T4 sequence (P04233 1-296): T1 sequence (P04233 1-296)
Description: as §1, §5, §4

[5] = molecular target: T5, CD74 on SU-DHL-6 (NHL) cells (Homo sapiens, UniProt P04233); assay: Cell binding assay (FACS), SU-DHL-6 (NHL); conditions: NB = no binding
T5 construct: endogenous in cells; host or cells: SU-DHL-6
T5 sequence (P04233 1-296): T1 sequence (P04233 1-296)
Description: as §1, §5, §4

CD74 on ARP-1 (MM) cells = molecular target: T6, CD74 on ARP-1 (MM) cells (Homo sapiens, UniProt P04233); assay: Cell binding assay (FACS), ARP-1 (MM); conditions: geometric mean fluorescent intensity, NB = no binding
T6 construct: endogenous in cells; host or cells: RPMI-6666, SU-DHL-6, ARD, ARP-1, RPMI-8226, OPM-2, BDCM, SUP-B15, JVM-13, K562
T6 sequence (P04233 1-296): T1 sequence (P04233 1-296)
Description: as §1
as §5, with “Cells” for “Cell lines were maintained in RPMI, high glucose (Cellgro-Mediatech; Manassas, Va.) supplemented with 20% heat-inactivated fetal bovine serum (Hyclone; Thermo Scientific; Waltham, Mass.), 2 mM glutamax (Invitrogen; Carlsbad, Calif.) and 1×Pencillin/streptomycin (Cellgro-Mediatech; Manassas, Va.). Cells”
as §1

CD74 on ARD (MM) cells = molecular target: T7, CD74 on ARD (MM) cells (Homo sapiens, UniProt P04233); assay: Cell binding assay (FACS), ARD (MM); conditions: NB = no binding
T7 construct: endogenous in cells; host or cells: RPMI-6666, SU-DHL-6, ARD, ARP-1, RPMI-8226, OPM-2, BDCM, SUP-B15, JVM-13, K562
T7 sequence (P04233 1-296): T1 sequence (P04233 1-296)
Description: as §1, §5, §4

CD74 on BDCM (AML) cells = molecular target: T8, CD74 on BDCM (AML) cells (Homo sapiens, UniProt P04233); assay: Cell binding assay (FACS), BDCM (AML); conditions: NB = no binding
T8 construct: endogenous in cells; host or cells: RPMI-6666, SU-DHL-6, ARD, ARP-1, RPMI-8226, OPM-2, BDCM, SUP-B15, JVM-13, K562
T8 sequence (P04233 1-296): T1 sequence (P04233 1-296)
Description: as §1, §5, §4

[6] = ARD (MM) cells, 72 hrs, Cell Titer-Glo, NK = no killing
[7] = FACS, geometric mean fluorescent intensity

Molecule: COc1cc2cc(c1Cl)N(C)C(=O)C[C@H](OC(=O)[C@H](C)N(C)C(=O)CCCC(=O)N(C)CCOCCOCCOCCOCc1cn(C)nn1)[C@]1(C)O[C@H]1[C@H](C)[C@@H]1C[C@@](O)(NC(=O)O1)[C@H](OC)/C=C/C=C(/C)C2 [Conjugate B]
- IC50 (K562 (CML) cells): > 50 nM
- IC50 (SU-DHL-6 (NHL) cells; 72 h): 1.3 nM
- Cell Killing Activity Span (SU-DHL-6 (NHL) cells; SU-DHL-6 (NHL) cells, 72 hrs, Cell Titer-Glo, NK = no killing): 98%
- IC50 (SUP-B15 (ALL) cells; 72 h): 5.7 nM
- Cell Killing Activity Span (SUP-B15 (ALL) cells; SUP-B15 (ALL) cells, 72 hrs, Cell Titer-Glo, NK = no killing): 72%
- IC50 (RPMI-6666 (HL) cells; 72 h): 1.3 nM
- Cell Killing Activity Span (RPMI-6666 (HL) cells; RPMI-6666 (HL) cells, 72 hrs, Cell Titer-Glo, NK = no killing): 89%
- IC50 (JVM-13 (CLL) cells; 72 h): 2 nM
- Cell Killing Activity Span (JVM-13 (CLL) cells; JVM-13 (CLL) cells, 72 hrs, Cell Titer-Glo, NK = no killing): 69%
- IC50 (ARD (MM) cells; 72 h): 31 nM
- Cell Killing Activity Span (ARD (MM) cells; [6]): 53%
- IC50 (BDCM (AML) cells; 72 h): 15 nM
- Cell Killing Activity Span (BDCM (AML) cells; BDCM (AML) cells, 72 hrs, Cell Titer-Glo, NK = no killing): 95%
- IC50 (ARP-1 (MM) cells; 72 h): 16 nM
- Cell Killing Activity Span (ARP-1 (MM) cells; ARP-1 (MM) cells, 72 hrs, Cell Titer-Glo, NK = no killing): 82%
- IC50 (RPMI-8226 (MM) cells; 72 h): 51 nM
- Cell Killing Activity Span (RPMI-8226 (MM) cells; RPMI-8226 (MM) cells, 72 hrs, Cell Titer-Glo, NK = no killing): 41%
- IC50 (OPM-2 (MM) cells): > 50 nM

Molecule: COc1cc2cc(c1Cl)N(C)C(=O)C[C@H](OC(=O)[C@H](C)N(C)C(=O)CCCC(=O)N(C)CCOCCOCCOCCOCCC(=O)NCCC(=O)N1Cc3ccccc3C#Cc3ccccc31)[C@]1(C)O[C@H]1[C@H](C)[C@@H]1C[C@@](O)(NC(=O)O1)[C@H](OC)/C=C/C=C(/C)C2 [Free Linker-Drug, DBCO-PEG4-maytansine, reference compound]
- IC50 (K562 (CML) cells; Homo sapiens): 60 nM
- IC50 (SU-DHL-6 (NHL) cells; Homo sapiens, SU-DHL-6 (NHL) cells, 72 hrs, Cell Titer-Glo, NK = no killing, read-out: Cell Killing Activity IC50): 15 nM
- IC50 (SUP-B15 (ALL) cells; Homo sapiens, SUP-B15 (ALL) cells, 72 hrs, Cell Titer-Glo, NK = no killing, read-out: Cell Killing Activity IC50): 11 nM
- IC50 (RPMI-6666 (HL) cells; Homo sapiens, RPMI-6666 (HL) cells, 72 hrs, Cell Titer-Glo, NK = no killing, read-out: Cell Killing Activity IC50): ~13 nM
- IC50 (JVM-13 (CLL) cells; JVM13, JVM-13 (CLL) cells, 72 hrs, Cell Titer-Glo, NK = no killing, read-out: Cell Killing Activity IC50): 25 nM
- Cell Killing Activity Span (ARD (MM) cells; [6]): 40%
- IC50 (ARD (MM) cells; ARD (MM) cells, 72 hrs, Cell Titer-Glo, NK = no killing, read-out: Cell Killing Activity IC50): ~34 nM
- IC50 (BDCM (AML) cells; BDCM (AML) cells, 72 hrs, Cell Titer-Glo, NK = no killing, read-out: Cell Killing Activity IC50): 13 nM
- IC50 (RPMI-8226 (MM) cells; Homo sapiens, RPMI-8226 (MM) cells, 72 hrs, Cell Titer-Glo, NK = no killing, read-out: Cell Killing Activity IC50): 18 nM
- IC50 (OPM-2 (MM) cells; Homo sapiens): 24 nM

B1: anti-CD74 (antibody, V domains shown)
VH: QVQLVESGGGVVQPGRSLRLSCAASGFNFSDYGMHWVRQAPGKGLEWVAVIWYDGSISYYADSVKGRFTISRDNSKNTLYLQMNSLRAEDTAVYYCARGGTVEHGAVYGTDVWGQGTTVTVSS
VL: DIQMTQSPSSVSASVGDRVTITCRASQGIGSWLAWYQQKPGKAPKLLIYAADRLQSGVPSRFSGSGSGTDFTLTISSLQPEDFATYYCQQYHTYPLTFGGGTKVEIK
- Bmax [1, 7]: 3879
- Kd ([1]; cell binding): 2.3 nM
- Bmax [2, 7]: 680
- Kd ([2]; cell binding): 3.5 nM
- Bmax [3, 7]: 447
- Kd ([3]; cell binding): 2.5 nM
- Bmax [4, 7]: 119
- Kd ([4]; cell binding): 3.6 nM
- Bmax [5, 7]: 1565
- Kd ([5]; cell binding): 2 nM
- Bmax (CD74 on ARP-1 (MM) cells): 341
- Bmax (CD74 on ARD (MM) cells; [7]): 190
- Kd (CD74 on ARD (MM) cells; cell binding): 2.6 nM
- Bmax (CD74 on BDCM (AML) cells; [7]): 3059
- Kd (CD74 on BDCM (AML) cells; cell binding): 4.5 nM
